According to US20250059182A1, “SOS1 INHIBITORS” (Mirati Therapeutics, Inc., priority 2021, published 2025):
Counter-ions that a name gives are not always drawn. Like-named read-outs stand apart in the source and are kept apart here.

Key:
[1] = target: T1, recombinant human SOS1 polypeptide (amino acids 560-1049) (Homo sapiens, UniProt Q07889); test: HTRF displacement assay: inhibition of labeled tracer binding to SOS1
T1 construct: corresponding to amino acids 560-1049, expressed in E. Coli; made in house; host or cells: E. coli
T1 sequence (Q07889 560-1049): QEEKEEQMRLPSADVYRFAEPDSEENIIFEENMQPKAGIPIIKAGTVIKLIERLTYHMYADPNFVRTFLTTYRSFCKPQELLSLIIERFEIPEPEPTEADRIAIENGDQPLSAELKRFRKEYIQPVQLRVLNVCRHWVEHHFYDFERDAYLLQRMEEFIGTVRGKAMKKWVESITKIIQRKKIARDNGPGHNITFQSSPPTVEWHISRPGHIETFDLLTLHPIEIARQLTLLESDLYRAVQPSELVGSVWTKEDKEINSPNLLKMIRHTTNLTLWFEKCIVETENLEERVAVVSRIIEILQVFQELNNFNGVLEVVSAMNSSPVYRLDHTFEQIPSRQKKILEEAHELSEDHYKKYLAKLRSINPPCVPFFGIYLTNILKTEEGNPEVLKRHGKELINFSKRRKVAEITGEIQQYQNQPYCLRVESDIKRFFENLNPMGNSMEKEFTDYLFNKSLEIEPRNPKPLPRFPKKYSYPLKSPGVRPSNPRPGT

pERK in MKN1 cells = test: pERK inhibition, In-Cell Western (LI-COR Odyssey), MKN1 cells; format: cell-based
In short: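 IC50 was fitted from % pERK inhibition, calculated as the GAPDH-normalised pERK signal of each well divided by the vehicle mean. Signal was imaged at 700 and 800 nm after fixation, methanol permeabilisation and dual antibody staining. Before fixation, MKN1 cells had received compound for about 0.5–1 h at 37 °C, top concentration 10 µM, nine 3-fold dilutions.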

[2] = Table A1, Morrison equation for competitive binding
[3] = Homo sapiens, MKN-1, Table B1, MKN1 or H358 cells (table does not say which), 0.5-1 hour incubation, read-out: IC50 (nM), pERK inhibition
[4] = Table A, Morrison equation for competitive binding
[5] = Homo sapiens, MKN-1, Table B, MKN1 or H358 cells (table does not say which), 0.5-1 hour incubation, read-out: IC50 (nM), pERK inhibition

| SMILES | Ki [1, 4] | IC50 (pERK in MKN1 cells; [5]) | also measured |
| --- | --- | --- | --- |
| Cc1nnc(N[C@H](C)c2cccc3c2OCC3(F)F)c2cc(N3C[C@@H]4C[C@H]3CN4C)ncc12 [Example P-184, N-((R)-1-(3,3-difluoro-2,3-dihydrobenzofuran-7-yl)ethyl)-4-methyl-7-((1S,4S)-5-methyl-2,5-diazabicyclo[2.2.1]heptan-2-yl)pyrido[3,4-d]pyridazin-1-amine formic acid salt] | – | – | Ki [1, 2]: 1.02 nM; IC50 (pERK in MKN1 cells; Homo sapiens, MKN-1, read-out: IC50 (nM), pERK inhibition): 65.7 nM |
| Cc1c(C#N)cccc1[C@@H](C)Nc1nnc(C)c2cnc(N3CCn4c(C)nnc4C3)cc12 [Example P-27, (R)-2-methyl-3-(1-((4-methyl-7-(3-methyl-5,6-dihydro-[1,2,4]triazolo[4,3-a]pyrazin-7(8H)-yl)pyrido[3,4-d]pyridazin-1-yl)amino)ethyl)benzonitrile] | – | – | Ki [1, 2]: 1.26 nM; IC50 (pERK in MKN1 cells; [3]): > 10000 nM |
| Cc1nnc(N[C@H](C)c2cccc(C(F)(F)F)c2F)c2cc(N(C)[C@H]3CCOC3)ncc12 [Example 1-72, N^1-((R)-1-(2-fluoro-3-(trifluoromethyl)phenyl)ethyl)-N^7,4-dimethyl-N^7-((S)-tetrahydrofuran-3-yl)pyrido[3,4-d]pyridazine-1,7-diamine] | 1.74 nM | 118 nM | – |
| Cc1c(C#N)cccc1[C@@H](C)Nc1nnc(C)c2cc(F)c(N3CCC34CN(CCC(=O)O)C4)cc12 [Example P-220, (R)-3-(1-(4-((1-(3-cyano-2-methylphenyl)ethyl)amino)-7-fluoro-1-methylphthalazin-6-yl)-1,6-diazaspiro[3.3]heptan-6-yl)propanoic acid] | – | – | Ki [1, 2]: 0.678 nM; IC50 (pERK in MKN1 cells; [3]): 4110 nM |
| Cc1nnc(N[C@H](C)c2cccc(C(C)(F)F)c2F)c2cc(N3CCN4CCOC[C@@H]4C3)ncc12 [Example P-171, N-((R)-1-(3-(1,1-difluoroethyl)-2-fluorophenyl)ethyl)-7-((S)-hexahydropyrazino[2,1-c][1,4]oxazin-8(1H)-yl)-4-methylpyrido[3,4-d]pyridazin-1-amine] | – | – | Ki [1, 2]: 0.425 nM; IC50 (pERK in MKN1 cells; [3]): 28.5 nM |
| Cc1c(C#N)cccc1[C@@H](C)Nc1nnc(C)c2cc(F)c(N3C[C@@H]4C[C@H]3CN4C)cc12 [Example 4-14, 3-((R)-1-((6-fluoro-4-methyl-7-((1S,4S)-5-methyl-2,5-diazabicyclo[2.2.1]heptan-2-yl)phthalazin-1-yl)amino)ethyl)-2-methylbenzonitrile] | 1.16 nM | – | IC50 (pERK in MKN1 cells; Table B, MKN1 or H358 cells (table does not say which), 0.5-1 hour incubation, read-out: IC50 (nM), pERK inhibition): 41.6 nM |
| Cc1c(C#N)cccc1[C@@H](C)Nc1nnc(C)c2cnc(N3C[C@H]4CCCN[C@H]4C3)cc12 (single isomer, unassigned) [Example 6-3] | 0.992 nM | 73 nM | – |
| Cc1nnc(N[C@H](C)c2cccc(C(F)(F)F)c2F)c2cc(N3CCCC34CN(C)C4)ncc12 [Example 1-21, (R)-N-(1-(2-fluoro-3-(trifluoromethyl)phenyl)ethyl)-4-methyl-7-(2-methyl-2,5-diazaspiro[3.4]octan-5-yl)pyrido[3,4-d]pyridazin-1-amine] | 0.249 nM | 25.5 nM | – |
| Cc1nnc(N[C@H](C)c2ccc(C#N)cc2F)c2cc(N3C[C@H]4C[C@@H]3CO4)ncc12 [Example 1-96, 4-((R)-1-((7-((1R,4R)-2-oxa-5-azabicyclo[2.2.1]heptan-5-yl)-4-methylpyrido[3,4-d]pyridazin-1-yl)amino)ethyl)-3-fluorobenzonitrile] | 19.1 nM | 255 nM | – |
| Cc1nnc(N[C@H](C)c2cccc(C(F)F)c2F)c2cc(N3CCN(CCCF)CC3)ncc12 [Example P-227, (R)-N-(1-(3-(difluoromethyl)-2-fluorophenyl)ethyl)-7-(4-(3-fluoropropyl)piperazin-1-yl)-4-methylpyrido[3,4-d]pyridazin-1-amine] | – | – | Ki [1, 2]: 0.396 nM; IC50 (pERK in MKN1 cells; [3]): 223 nM |
| Cc1nnc(N[C@H](C)c2cccc(C(F)(F)F)c2F)c2cc(N3CCC34CN(C)C4)ncc12 [Example 1-20, (R)-N-(1-(2-fluoro-3-(trifluoromethyl)phenyl)ethyl)-4-methyl-7-(6-methyl-1,6-diazaspiro[3.3]heptan-1-yl)pyrido[3,4-d]pyridazin-1-amine] | 0.682 nM | 40.7 nM | – |
| Cc1c(C#N)cccc1[C@@H](C)Nc1nnc(C)c2cnc(N(C)C[C@H]3CCCN3)cc12 [Example 1-56, 2-methyl-3-((R)-1-((4-methyl-7-(methyl(((R)-pyrrolidin-2-yl)methyl)amino)pyrido[3,4-d]pyridazin-1-yl)amino)ethyl)benzonitrile] | 2.15 nM | 246 nM | – |
| Cc1c(C#N)cccc1[C@@H](C)Nc1nnc(C)c2cnc(N3CCC4(CN(C)C4)C3)cc12 [Example 1-25, (R)-2-methyl-3-(1-((4-methyl-7-(2-methyl-2,6-diazaspiro[3.4]octan-6-yl)pyrido[3,4-d]pyridazin-1-yl)amino)ethyl)benzonitrile] | 0.492 nM | 68.6 nM | – |
| Cc1c(C#N)cccc1[C@@H](C)Nc1nnc(C)c2cc(F)c(N3CCC34CN(C)C4)cc12 [Example 4-4, (R)-3-(1-((6-fluoro-4-methyl-7-(6-methyl-1,6-diazaspiro[3.3]heptan-1-yl)phthalazin-1-yl)amino)ethyl)-2-methylbenzonitrile] | 0.892 nM | 39.6 nM | – |
| Cc1c(C#N)cccc1[C@@H](C)Nc1nnc(C)c2cc(Cl)c(N(C)[C@@H]3CCN(C)C3)cc12 [Example P-194, 3-((R)-1-((6-chloro-4-methyl-7-(methyl((R)-1-methylpyrrolidin-3-yl)amino)phthalazin-1-yl)amino)ethyl)-2-methylbenzonitrile] | – | – | Ki [1, 2]: 5.27 nM; IC50 (pERK in MKN1 cells; [3]): 231 nM |
| CCN1C[C@@H]2C[C@H]1CN2c1cc2c(N[C@H](C)c3cccc(C#N)c3C)nnc(C)c2cn1 [Example 1-36, 3-((R)-1-((7-((1S,4S)-5-ethyl-2,5-diazabicyclo[2.2.1]heptan-2-yl)-4-methylpyrido[3,4-d]pyridazin-1-yl)amino)ethyl)-2-methylbenzonitrile] | 3.43 nM | 75.5 nM | – |
| Cc1nnc(N[C@H](C)c2cccc3c2OCC3(F)F)c2cc(N3CCOCC3)ncc12 [Example 1-108, (R)-N-(1-(3,3-difluoro-2,3-dihydrobenzofuran-7-yl)ethyl)-4-methyl-7-morpholinopyrido[3,4-d]pyridazin-1-amine] | 2.31 nM | 35.7 nM | – |
| Cc1c([C@@H](C)Nc2nnc(C)c3cnc(N4C[C@H]5C[C@@H]4CO5)cc23)cc(N)nc1C(F)(F)F [Example 1-106, N-((R)-1-(6-amino-3-methyl-2-(trifluoromethyl)pyridin-4-yl)ethyl)-7-((1R,4R)-2-oxa-5-azabicyclo[2.2.1]heptan-5-yl)-4-methylpyrido[3,4-d]pyridazin-1-amine] | 7.3 nM | 128 nM | – |
| COC1CCN(c2cc3c(N[C@H](C)c4cccc(C#N)c4C)nnc(C)c3cn2)CC1 [Example P-15, (R)-3-(1-((7-(4-methoxypiperidin-1-yl)-4-methylpyrido[3,4-d]pyridazin-1-yl)amino)ethyl)-2-methylbenzonitrile] | – | – | Ki [1, 2]: 1.12 nM; IC50 (pERK in MKN1 cells; [3]): 66.1 nM |
| Cc1c(C#N)cccc1[C@@H](C)Nc1nnc(C)c2cnc(N3CCN(C(=O)[C@@H]4CCCN4)CC3)cc12 [Example 2-4, 3-((R)-1-((7-(4-(L-prolyl)piperazin-1-yl)-4-methylpyrido[3,4-d]pyridazin-1-yl)amino)ethyl)-2-methylbenzonitrile] | 0.816 nM | 933 nM | – |
| Cc1c(C#N)cccc1[C@@H](C)Nc1nnc(C)c2cnc(N3CC4(CN(C)C4)C3)cc12 [Example 1-24, (R)-2-methyl-3-(1-((4-methyl-7-(6-methyl-2,6-diazaspiro[3.3]heptan-2-yl)pyrido[3,4-d]pyridazin-1-yl)amino)ethyl)benzonitrile] | 0.353 nM | 40.3 nM | – |
| Cc1c(C#N)cccc1[C@@H](C)Nc1nnc(C)c2cc(F)c(N3C[C@H]4C[C@@H]3CO4)cc12 [Example 4-15, 3-((R)-1-((7-((1R,4R)-2-oxa-5-azabicyclo[2.2.1]heptan-5-yl)-6-fluoro-4-methylphthalazin-1-yl)amino)ethyl)-2-methylbenzonitrile] | 4.66 nM | 37.8 nM | – |
| CCN1CC2(C1)CN(c1cc3c(N[C@H](C)c4cccc(C#N)c4C)nnc(C)c3cn1)C2 [Example 1-7, (R)-3-(1-((7-(6-ethyl-2,6-diazaspiro[3.3]heptan-2-yl)-4-methylpyrido[3,4-d]pyridazin-1-yl)amino)ethyl)-2-methylbenzonitrile] | 0.378 nM | 39.4 nM | – |
| Cc1c(C#N)cccc1[C@@H](C)Nc1nnc(C)c2cnc(N3CC(C)(N4CCCC4)C3)cc12 [Example 1-4, (R)-2-methyl-3-(1-((4-methyl-7-(3-methyl-3-(pyrrolidin-1-yl)azetidin-1-yl)pyrido[3,4-d]pyridazin-1-yl)amino)ethyl)benzonitrile] | 1.22 nM | 62.6 nM | – |
